Literature values as cited in patent US20110196036A1, “USE OF BETAINE” (DANISCO A/S, priority 2008, published 2011).

Conditions: pure form; water and lower alcohols

For C[N+](C)(C)CC(=O)[O-] [betaine, trimethylglycine], the solubility is listed as “readily soluble in water and lower alcohols”.
